In patent US8962020B2, “Long-acting and controlled release formulations of 2-[(3-chlorophenyl) amino] phenylacetic acid” (Glycadia Inc., priority 2012, dated 2015):

Key:
[1] = Plasma 23CPPA after oral graduated doses of nonformulated 23CPPA to normal men; type: in vivo
Protocol: Plasma concentrations of 23CPPA were measured in samples obtained at timed intervals after oral administration of graduated doses of nonformulated 23CPPA to normal men.

[2] = pKa (acid dissociation constant); type: physicochemical; conditions: pharmaceutically acceptable salts of 23CPPA such as potassium; read-out: pKa (logarithm of the acid dissociation constant)
[3] = Pharmacokinetics following oral administration of 23CPPA in rats for fourteen days; type: in vivo; conditions: for Tmax / half-life: rat, plasma
Protocol: (§1) Rats (Charles River Laboratories) received 23CPPA orally at dosages of 25 and 75 mg per kg per day for fourteen days. Samples were obtained at timed intervals following administration for measurement of plasma concentrations of 23CPPA and pharmacokinetic analysis, and tissue was histopathologically examined at the end termination of the study period.

[4] = Gastric histopathology following oral administration of 23CPPA in rats for fourteen days; type: in vivo
Protocol: as §1

Plasma 23CPPA (peak concentration) ([1]; relative dose 1): 7 nmol/mL
Plasma 23CPPA (peak concentration) ([1]; relative dose 2): 19 nmol/mL
Plasma 23CPPA (peak concentration) ([1]; relative dose 5): 44 nmol/mL
Plasma 23CPPA (peak concentration) ([1]; relative dose 10): 64 nmol/mL
Plasma 23CPPA (peak concentration) ([1]; relative dose 15): 70 nmol/mL
Plasma 23CPPA (peak concentration) ([1]; relative dose 20): 74 nmol/mL
pKa [2]: 4
time of maximum plasma concentration of drug after administration ([3]; 25 and 75 mg per kg per day): 0.25 h
Tmax ([3]; 25 mg/kg/day for fourteen days): 0.25 h
half-life ([3]; 25 mg/kg/day for fourteen days): 2.3 h
Tmax ([3]; 75 mg/kg/day for fourteen days): 0.25 h
half-life ([3]; 75 mg/kg/day for fourteen days): 2.3 h
Gastric Histopathology: Edema/inflammation ([4]; 25 mg/kg/day for fourteen days): Edema/inflammation (20) % animals
Gastric Histopathology: Edema/inflammation ([4]; 75 mg/kg/day for fourteen days): Edema/inflammation (30) % animals
Compound: O=C(O)Cc1ccccc1Nc1cccc(Cl)c1 [Granule 23CPPA, 2-[(3-chlorophenyl)amino] phenylacetic acid]
